Data reported in patent publication US8124840B2, “Regulating metabolism by modifying the level of trehalose-6-phosphate” (Syngenta Mogen B.V., priority 1996, dated 2012).

Assays:
hexokinase = test: Hexokinase assay on mouse hybridoma cell extract with/without trehalose-6-phosphate; assay type: biochemical; settings: for V2 (ODU/min): hexokinase rate with T6P
Experimental: Hexokinase activity was measured in an assay containing 0.1 M Hepes-KOH pH 7.0, 4 mM MgCl2, 5 mM ATP, 0.2 mM NADP^+, 10 U/ml Creatine Phosphate Kinase (dissolved in 50% glycerol, 0.1% BSA, 50 mM Hepes pH 7.0), 3.5 mM Creatine Phosphate, 7 U/ml Glucose-6-Phosphate Dehydrogenase and 2 mM Glucose by measuring the increase in OD at 340 nm at 25° C.
When 2 mM Fructose was used instead of glucose as substrate for the hexokinase reaction, 3.8 U/ml Phosphoglucose Isomerase was included. Alternatively, a hexokinase assay as described by Gancedo et al. (1977) J. Biol. Chem. 252, 4443 was used.
A hexokinase assay was performed using glucose or fructose as substrate under conditions as described by Gancedo et al. (see above). Mouse hybridoma cells were subjected to osmotic shock by exposing a cell pellet to 20% sucrose, followed by distilled water. This crude protein extract was used in the hexokinase assay (50 μl) extract corresponding to ca. 200 μg protein).

potato microtubers = test: Trehalose accumulation in potato microtubers induced on medium with Validamycin A; assay type: in vivo, Solanum tuberosum cv. Kardal; settings: for Trehalose (% fresh weight): +Validamycin A 10^−3 M
Experimental: Stem segments of in vitro potato plants harbouring an auxiliary meristem were transferred to micro-tuber inducing medium. Micro-tuber inducing medium contains 1 X MS-salts supplemented with R3 vitamins, 0.5 g/l MES (final pH=5.8, adjusted with KOH) and solidified with 8 g/l Daichin agar, 60 g/l sucrose and 2.5 mg/l kinetin. After 3 to 5 weeks of growth in the dark at 24° C., micro-tubers were formed.
(§1) Validamycin A was isolated from Solacol, a commercial agricultural formulation (Takeda Chem. Indust., Tokyo) as described by Kendall et al. (1990) Phytochemistry 29, 2525. The procedure involves ion-exchange chromatography (QAE-Sephadex A-25 (Pharmacia), bed vol. 10 ml, equilibration buffer 0.2 mM Na-Pi pH 7) from a 3% agricultural formulation of Solacol. Loading 1 ml of Solacol on the column and eluting with water in 7 fractions, practically all Validamycin was recovered in fraction 4. Based on a 100% recovery, using this procedure, the concentration of Validamycin A was adjusted to 1.10^−3 M in MS-medium, for use in trehalose accumulation tests. Alternatively, Validamycin A and B may be purified directly from Streptomyces hygroscopicus var. limoneus, as described by Iwasa et al. (1971) J. Antibiot. 24, 119, the content of which is incorporated herein by reference.
Carbohydrates were determined quantitatively by anion exchange chromatography with pulsed electrochemical detection. Extracts were prepared by extracting homogenized frozen material with 80% EtOH. After extraction for 15 minutes at room temperature, the soluble fraction is evaporated and dissolved in distilled water. Samples (25 μl) were analyzed on a Dionex DX-300 liquid chromatograph equipped with a 4×250 mm Dionex 35391 carbopac PA-1 column and a 4×50 mm Dionex 43096 carbopac PA-1 precolumn. Elution was with 100 mM NaOH at 1 ml/min followed by a NaAc gradient. Sugars were detected with a pulsed electrochemical detector (Dionex, PED). Commercially available carbohydrates (Sigma) were used as a standard.
Potato Solanum tuberosum cv. […] The presence of small amounts of trehalose in wild-type plants indicates the presence of a functional trehalose biosynthetic pathway.
Evidence for the presence of a trehalose biosynthesis pathway in tobacco was obtained by culturing wild-type plants in the presence of 10^−3M of the trehalase inhibitor Validamycin A. The treated plants accumulated very small amounts of trehalose, up to 0.0021% (fw). Trehalose accumulation was never detected in any control plants cultured without inhibitor. Similar data were obtained with wild-type microtubers cultured in the presence of Validamycin A. Ten out of seventeen lines accumulated on average 0.001% trehalose (fw)/(Table 4).

wild-type tobacco plants = test: Trehalose accumulation in wild-type tobacco plants cultured with Validamycin A; assay type: in vivo; settings: wild-type tobacco plants cultured with 10^−3M Validamycin A
Experimental: as §1, with “1.10^-3” for “1.10^−3”, “reference. Carbohydrates were determined quantitatively by anion exchange chromatography with pulsed electrochemical detection. […] Samples (25 μl) were analyzed on a Dionex DX-300 liquid chromatograph equipped with a 4×250 mm Dionex 35391 carbopac PA-1 column and a 4×50 mm Dionex 43096 carbopac PA-1 precolumn. […] Sugars were detected with a pulsed electrochemical detector (Dionex, PED). […] Trehalose accumulation was never detected in any control plants cultured without inhibitor. […]” for “reference.”

[1] = system: trehalases from various sources; settings: cited from earlier work
α- or β-glycohydrolase = settings: except for trehalase; cited from earlier work
[2] = substrate Fructose 20 mM, T6P 0.23
[3] = substrate Fructose 20 mM, T6P 0.43
[4] = substrate Fructose 20 mM, T6P 0.83
[5] = substrate Fructose 20 mM, T6P 1.67
[6] = substrate Glucose 2 mM, T6P 0.83
[7] = substrate Glucose 20 mM, T6P 0.83
[8] = substrate Glucose 100 mM, T6P 0.83

O=P(O)(O)OC[C@H]1O[C@H](O[C@H]2O[C@H](CO)[C@@H](O)[C@H](O)[C@H]2O)[C@H](O)[C@@H](O)[C@@H]1O [T-6-P, trehalose-6-phosphate]
Hexokinase activity in mouse cell extracts (hexokinase; crude extract of mouse hybridoma cells): is inhibited | V2 (ODU/min) (hexokinase; [2]): 0.0205 ODU/min | V2 (ODU/min) (hexokinase; [3]): 0.0197 ODU/min | V2 (ODU/min) (hexokinase; [4]): 0.0151 ODU/min | V2 (ODU/min) (hexokinase; [5]): 0.0133 ODU/min | V2 (ODU/min) (hexokinase; [6]): 0.0133 ODU/min | V2 (ODU/min) (hexokinase; [7]): 0.0141 ODU/min | V2 (ODU/min) (hexokinase; [8]): 0.0125 ODU/min | Efficiency of hexokinase inhibition, glucose versus fructose as substrate (hexokinase; mouse cell extracts): No difference | Inhibition (%) (hexokinase; [2]): 1% | Inhibition (%) (hexokinase; [3]): 26% | Inhibition (%) (hexokinase; [4]): 35% | Inhibition (%) (hexokinase; [5]): 46% | Inhibition (%) (hexokinase; [6]): 35% | Inhibition (%) (hexokinase; [7]): 35% | Inhibition (%) (hexokinase; [8]): 34%

OCC1=C[C@@H](N[C@H]2C[C@H](CO)[C@@H](O[C@H]3O[C@@H](CO)[C@H](O)[C@@H](O)[C@@H]3O)[C@H](O)[C@H]2O)[C@H](O)[C@@H](O)[C@@H]1O [Validamycin A]
Trehalose (% fresh weight) (potato microtubers; microtubers of pMOG845 line 845-2): 0.016 % fresh weight | Trehalose (% fresh weight) (potato microtubers; microtubers of pMOG845 line 845-8): 0.051 % fresh weight | Trehalose (% fresh weight) (potato microtubers; microtubers of pMOG845 line 845-11): 0.015 % fresh weight | Trehalose (% fresh weight) (potato microtubers; microtubers of pMOG845 line 845-13): 0.011 % fresh weight | Trehalose (% fresh weight) (potato microtubers; microtubers of pMOG845 line 845-22): 0.112 % fresh weight | Trehalose (% fresh weight) (potato microtubers; microtubers of pMOG845 line 845-25): 0.002 % fresh weight | Trehalose (% fresh weight) (potato microtubers; microtubers of pMOG845 line 845-28): 0.109 % fresh weight | Trehalose (% fresh weight) (potato microtubers; microtubers of wild type Kardal): 0.001 % fresh weight | Trehalose level in microtubers versus medium without Validamycin A (potato microtubers; transgenic (pMOG845) and wild-type microtubers, 10^−3 M Validamycin A): elevated levels of trehalose | Trehalose accumulation, average (potato microtubers; wild-type microtubers cultured with Validamycin A, ten out of seventeen lines): 0.001 % trehalose (fw) | Trehalose accumulation (wild-type tobacco plants): up to 0.0021 % (fw) | IC50 [1]: 0.1 to 1000 nM | Inhibition of α- or β-glycohydrolase activity (α- or β-glycohydrolase): does not significantly inhibit
